Patent US20040034206A1, “Combination therapy for RNA virus infections involving ribavirin and IMPDH inhibitors” (priority 2002, published 2004)
Read-outs that look alike come from different tables or passages of the source.

What was measured:
[1] = tested on: HCV subgenomic replicon (clone 16) in Huh-7 cells; format: cell-based, Hepatitis C Virus
Source text: We examined the mutagenic effect of ribavirin and other IMPDH inhibitors on HCV using the recently developed HCV replicon system. See German Patent No. DE19915178A1 to Bartenschlager, the disclosure of which is hereby incorporated by reference in its entirety. In the replicon system, an autonomously replicating clone of HCV comprising HCV 5′-NTR (NTR non translated region), NS3, NS4A, NS4B, NS5A, NS5B and a neomycin selectable marker gene that is linked to the HCV genes is inserted into human hepatoma cell line known as Huh-7 cells. The HCV-RNAs produced by the autonomously replicating clone of HCV in the Huh-7 cells are extracted and retransfected into naïve Huh-7 cells to evaluate the replication competence and efficiency of the HCV-RNA. Therefore, the effect of anti-viral treatments on the HCV-RNAs produced may be evaluated by growing the replicon cells in the presence or absence of such anti-viral treatments, then extracting the replicon RNA from treated cells and transfecting it into naive Huh 7 cells and measuring colony formation. The effect of the combination of ribavirin, and IMPDH inhibitors on HCV replication in vitro was evaluated using the replicon system as described below.
HCV Cell Culture System. Human hepatoma cell line Huh-7 cells were grown in Dulbecco's modified minimal essential medium (DMEM, Cellgro) supplemented with 10% fetal bovine serum, 4 mM L-glutamine, non-essential amino acids, 10 mM HEPES, 0.075% sodium bicarbonate, 100 U/ml penicillin and 100 ug/ml streptomycin, and 1 mM sodium pyruvate. HCV subgenomic replicon (clone 16, containing NS5A S1I791 adaptive mutation as described in Blight et al., Science 290:1972 (2000)) was constructed by Schering-Plough Research Institute as described by R. Bartenschlager. See Lohmann, et al., Science 285:5424 (2000). The replicon-bearing Huh-7 cells were maintained in the same media as described above with 0.5 mg/ml G418 (Geneticin, Gibco-BRL).
HCV RNA Replicon Copy Number measurement by Taqman assays. Replicon cells were seeded at 3000 cells per well in 96-well Bio-coated plates (Becton Dickinson) and allowed to adhere overnight. The next day the culture medium was replaced with 5% serum medium containing the experimental compound. After 72 hours the plate was harvested by aspirating medium, washing with PBS twice, and putting in […] cell lysis buffer (Ambion, catalog No. 8722). The plate was then heated at 75° C. for 5 min followed by freezing at −70° C. for 10 min. The cell lysate was then measured for HCV replicon copy number by one-step real-time RT-PCR (Taqman assay) using an ABI 7700 instrument. The primers, which correspond to HCV NS5B, are: forward, 5′-[…]-3′ (SEQ ID NO: 1), and reverse, 5′-[…]-3′ (SEQ ID NO: 2). The double fluorescence-labeled probe (5′-[…]-3′) (SEQ ID NO: 3) was purchased from Applied Biosystems (part No. P6448-6464). The cellular GAPDH (glyceraldehyde 3-phosphate dehydrogenase) mRNA from the same cell lysate was used as an internal control for cell number and metabolic status (primers/probes purchased from Perkin Elmer, part No. 4310859). Every experiment was performed in triplicate. The entire study was conducted independently two times.
Specific Colony Formation Efficiency (SCFE) determination. Replicon cells were loaded with compound(s) for 10 days under complete DMEM (without G418), with medium changes every 2-3 days. The total cytoplasmic RNA was extracted using RNA Easy kit from Qiagen (catalog No. 74104) and the RNA concentration was determined by absorbance at 260 nm. HCV replicon copy number in each RNA sample was determined by Taqman assay using a standard curve. For electroporation of RNA obtained from compound-treated replicon cells, 8 μg of total RNA suspended in 50 μl PBS was mixed with 50 μl suspension of 2×10^6 Huh-7 cells in a 0.1 cm cuvette (Bio-Rad, catalog No. 165-2089). As a control, wild type replicon RNA was serially diluted with total RNA from naïve Huh-7 cells.

[2] = human, in vivo; cited from earlier work
[3] = target: inosine monophosphate dehydrogenase (IMPDH); conditions: cited from J. Jain et al.; cited from earlier work
Hepatitis C Virus = conditions: IFN-α monotherapy, chronic HCV infection, depending on genotype; cited from earlier work

Compound: Nc1nc2c(ncn2[C@@H]2O[C@H](CO)[C@@H](O)[C@H]2O)c(=O)[nH]1 [Guan., guanosine]
- No. of Colonies ([1]; 10 μM Guan.): 210
- Replicon Copy No. ([1]; 10 μM Guan.): 12 copies X 10^7/8 μg total RNA
- SCFE (Specific Colony Formation Efficiency) ([1]; 10 μM Guan.): 180 colonies/10^8 HCV RNA genomes

Compound: NC(=O)c1ncn([C@@H]2O[C@H](CO)[C@@H](O)[C@H]2O)n1 [ribavirin, 1-beta-D-Ribofuranosyl-1H-1,2,4-triazole-3-carboxamide]
- No. of Colonies ([1]; 10 μM ribavirin): 650
- Replicon Copy No. ([1]; 10 μM ribavirin): 14 copies X 10^7/8 μg total RNA
- SCFE (Specific Colony Formation Efficiency) ([1]; 10 μM ribavirin): 480 colonies/10^8 HCV RNA genomes
- No. of Colonies ([1]; 50 μM ribavirin): 420
- Replicon Copy No. ([1]; 50 μM ribavirin): 12 copies X 10^7/8 μg total RNA
- SCFE (Specific Colony Formation Efficiency) ([1]; 50 μM ribavirin): 360 colonies/10^8 HCV RNA genomes
- No. of Colonies ([1]; 100 μM ribavirin): 110
- Replicon Copy No. ([1]; 100 μM ribavirin): 6 copies X 10^7/8 μg total RNA
- SCFE (Specific Colony Formation Efficiency) ([1]; 100 μM ribavirin): 200 colonies/10^8 HCV RNA genomes
- reduction in the fitness of the replicon (specific colony formation efficiency) ([1]; 100 μM ribavirin alone): ~4 fold
- patients with reduction in hemoglobin of greater than 4 g/dl [2]: 15.7%

Compound: COc1c(C)c2c(c(O)c1C/C=C(\C)CCC(=O)O)C(=O)OC2 [MPA, mycophenolic acid]
- No. of Colonies ([1]; 2 μM MPA): 470
- Replicon Copy No. ([1]; 2 μM MPA): 9 copies X 10^7/8 μg total RNA
- SCFE (Specific Colony Formation Efficiency) ([1]; 2 μM MPA): 510 colonies/10^8 HCV RNA genomes

Compound: COc1cc(NC(=O)Nc2cccc(CNC(=O)O[C@H]3CCOC3)c2)ccc1-c1cnco1 [IMPDH-I, (S)-N-3-[3-(3-methoxy-4-oxazol-5-yl-phenyl)ureido]-benzylcarbamic acid tetrahydrofuran-3-yl-ester]
- No. of Colonies ([1]; 100 nM IMPDH-I): 370
- Replicon Copy No. ([1]; 100 nM IMPDH-I): 10 copies X 10^7/8 μg total RNA
- SCFE (Specific Colony Formation Efficiency) ([1]; 100 nM IMPDH-I): 360 colonies/10^8 HCV RNA genomes
- effect on the replicon ([1]; 100 nM IMPDH-I alone, Example 5): only a marginal effect
- Ki [3]: ~10 nM

Compound: interferon-alpha
- response rate (Hepatitis C Virus): about 25%
